Measured values reported in patent US8686044B2, “Amide derivative, pest control agent containing the amide derivative, and use of the amide derivative” (Mitsui Chemicals Agro, Inc., priority 2008, dated 2014).

Tests used:
Format in all cases: in vivo
[1] = test system: Adoxophyes honmai; assay: Pesticidal test against Adoxophyes honmai (artificial feed dip); conditions: 144 h, 2-stage larvae, examined after 6 days, 25° C., read-out: pesticidal rate; for pest or weed control at 10 ppm: concentration 10 ppm; for pest or weed control at 1 ppm: concentration 1 ppm
Outline: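 Second-instar larvae, five per group in duplicate, were released onto air-dried feed slices previously immersed for 30 s in compound solution at a set concentration. Mortality was scored on day 6 at 25° C.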

[2] = test system: Helicoverpa armigera; assay: Pesticidal test against Helicoverpa armigera (cabbage leaf disk dip); conditions: foliar, 72 h, concentration 1 ppm, 2-stage larvae, examined after 3 days, 25° C., read-out: pesticidal rate
Outline: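 Cabbage leaf disks were dipped for 30 s in test solution at a set concentration and air-dried. Second-instar larvae were placed one per hole and held at 25 °C, with live and dead counts taken after 3 days. Five larvae per group were tested in two replicates.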

[3] = test system: Spodoptera litura; assay: Pesticidal test against Spodoptera litura (cabbage leaf dip); conditions: foliar, 144 h, concentration 1 ppm, 2-stage larvae, examined after 6 days, 25° C., read-out: pesticidal rate
Outline: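 Cabbage leaf pieces dipped 30 seconds in compound solution at a predetermined concentration and air-dried, then offered to second-stage larvae, five per group in two replicates. Held at 25° C. Living and dead larvae counted after 6 days.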

[4] = test system: Plutella xylostella; assay: Pesticidal test against Plutella xylostella (cabbage leaf dip); conditions: foliar, 144 h, concentration 1 ppm, 2-stage larvae, examined after 6 days, 25° C., read-out: pesticidal rate
Outline: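 Second-stage larvae (5 per group, two replicates) were released onto air-dried cabbage leaf discs that had been immersed for 30 seconds in compound solution at a set concentration. Mortality was scored after 6 days at 25° C.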

[5] = test system: Blattella germanica; assay: Pesticidal test against Blattella germanica (petri dish dry film); conditions: 24 h, concentration 100 ppm, female adults, examined after 1 day, 25° C., read-out: pesticidal rate
Method: Pesticidal Test against Blattella germanica
1 ml of an acetone solution in which a test compound had been prepared at a predetermined concentration was added dropwise to a petri dish having a diameter of 9 cm, and air-dried, and then the female adults of Blattella germanica were released and the petri dish was capped. They were left to stand in a thermostatic chamber at 25° C., and the numbers of the living pests and the dead pests were examined after 1 day. The test was carried out with five larvae per group in two replicates.

[6] = test system: Choristoneura magnanima; assay: Pesticidal test against Choristoneura magnanima (artificial feed dip); conditions: 144 h, 2-stage larvae, examined after 6 days, 25° C., read-out: pesticidal rate; for pest or weed control at 1 ppm: concentration 1 ppm
Outline: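 Second-stage larvae, five per group in duplicate, fed artificial diet that had been immersed 30 s in test solution at a predetermined concentration and air-dried. Mortality scored at day 6, 25° C.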

[7] = test system: Laodelphax striatellus; assay: Pesticidal test against Laodelphax striatellus (rice seedling spray); conditions: 144 h, concentration 100 ppm, 3-stage larvae, examined after 6 days, 25° C., read-out: pesticidal rate
Outline: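 Rice seedlings sprayed with 2.5 ml acetone solution of compound at a predetermined concentration, air-dried, then infested with third-stage Laodelphax striatellus larvae in capped water-containing tubes at 25 °C. Living and dead insects counted after 6 days; ten larvae per group, two replicates.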

[8] = test system: Musca domestica; assay: Pesticidal test against Musca domestica (petri dish dry film); conditions: 24 h, concentration 100 ppm, female adults, examined after 1 day, 25° C., read-out: pesticidal rate
Outline: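 Female adult houseflies were confined at 25° C in capped 9 cm petri dishes coated with an air-dried film from 1 ml acetone solution of compound (predetermined concentration). Mortality was scored 1 day later, two replicates of five per group.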

N#Cc1ccc(C(=O)Nc2cccc(C(=O)Nc3c(Br)cc(C(F)(C(F)(F)F)C(F)(F)C(F)(F)F)cc3C(F)(F)F)c2)cc1 (centres unmarked) [6-367]
≥ 70%: pest or weed control at 10 ppm [1] | pest or weed control at 1 ppm [2] | pest or weed control at 1 ppm [3] | pest or weed control at 1 ppm [4] | pest or weed control at 100 ppm [5] | pest or weed control at 1 ppm [6]

O=C(Nc1c(Br)cc(C(F)(C(F)(F)F)C(F)(F)C(F)(F)F)cc1C(F)(F)F)c1cccc(NC(=O)c2cccnc2Cl)c1 (centres unmarked) [6-382]
≥ 70%: pest or weed control at 100 ppm [7] | pest or weed control at 1 ppm [1] | pest or weed control at 100 ppm [8] | pest or weed control at 1 ppm [2] | pest or weed control at 1 ppm [3] | pest or weed control at 1 ppm [4] | pest or weed control at 100 ppm [5] | pest or weed control at 10 ppm ([6]; concentration 10 ppm)

O=C(Nc1cccc(C(=O)Nc2c(I)cc(C(F)(C(F)(F)F)C(F)(F)F)cc2C(F)(F)F)c1)c1cccc(F)c1 [6-426]
≥ 70%: pest or weed control at 10 ppm [1] | pest or weed control at 100 ppm [8] | pest or weed control at 1 ppm [2] | pest or weed control at 1 ppm [3] | pest or weed control at 1 ppm [4] | pest or weed control at 100 ppm [5] | pest or weed control at 1 ppm [6]

O=C(Nc1cccc(C(=O)Nc2c(I)cc(C(F)(C(F)(F)F)C(F)(F)F)cc2C(F)(F)F)c1)c1ccc(F)cc1 [6-427]
≥ 70%: pest or weed control at 100 ppm [7] | pest or weed control at 1 ppm [1] | pest or weed control at 100 ppm [8] | pest or weed control at 1 ppm [2] | pest or weed control at 1 ppm [3] | pest or weed control at 1 ppm [4] | pest or weed control at 100 ppm [5] | pest or weed control at 1 ppm [6]

O=C(Nc1cccc(C(=O)Nc2c(Br)cc(C(F)(C(F)(F)F)C(F)(F)F)cc2Br)c1F)c1cccc(F)c1 [6-1106]
≥ 70%: pest or weed control at 100 ppm [7] | pest or weed control at 1 ppm [1] | pest or weed control at 1 ppm [2] | pest or weed control at 1 ppm [3] | pest or weed control at 1 ppm [4] | pest or weed control at 100 ppm [5] | pest or weed control at 1 ppm [6]

N#Cc1cccc(C(=O)Nc2cccc(C(=O)Nc3c(I)cc(C(F)(C(F)(F)F)C(F)(F)C(F)(F)F)cc3I)c2F)c1 (centres unmarked) [6-1358]
≥ 70%: pest or weed control at 100 ppm [7] | pest or weed control at 1 ppm [1] | pest or weed control at 100 ppm [8] | pest or weed control at 1 ppm [2] | pest or weed control at 1 ppm [3] | pest or weed control at 1 ppm [4] | pest or weed control at 100 ppm [5] | pest or weed control at 1 ppm [6]

O=C(Nc1cccc(C(=O)Nc2c(Br)cc(C(F)(C(F)(F)F)C(F)(F)F)cc2C(F)(F)F)c1F)c1ccc(F)cc1 [6-1577]
≥ 70%: pest or weed control at 100 ppm [7] | pest or weed control at 10 ppm [1] | pest or weed control at 100 ppm [8] | pest or weed control at 1 ppm [2] | pest or weed control at 1 ppm [3] | pest or weed control at 1 ppm [4] | pest or weed control at 100 ppm [5] | pest or weed control at 1 ppm [6]

O=C(Nc1c(Br)cc(C(F)(C(F)(F)F)C(F)(F)F)cc1C(F)(F)F)c1cccc(NC(=O)c2c(F)cccc2F)c1F [6-1596]
≥ 70%: pest or weed control at 100 ppm [7] | pest or weed control at 1 ppm [1] | pest or weed control at 100 ppm [8] | pest or weed control at 1 ppm [2] | pest or weed control at 1 ppm [3] | pest or weed control at 1 ppm [4] | pest or weed control at 100 ppm [5] | pest or weed control at 1 ppm [6]

O=C(Nc1cccc(C(=O)Nc2c(I)cc(C(F)(C(F)(F)F)C(F)(F)F)cc2C(F)(F)F)c1F)c1ccccc1 [6-1730]
≥ 70%: pest or weed control at 100 ppm [7] | pest or weed control at 1 ppm [1] | pest or weed control at 100 ppm [8] | pest or weed control at 1 ppm [2] | pest or weed control at 1 ppm [3] | pest or weed control at 1 ppm [4] | pest or weed control at 100 ppm [5] | pest or weed control at 1 ppm [6]

O=C(Nc1cccc(C(=O)Nc2c(I)cc(C(F)(C(F)(F)F)C(F)(F)F)cc2C(F)(F)F)c1F)c1cccc(F)c1 [6-1732]
≥ 70%: pest or weed control at 100 ppm [7] | pest or weed control at 1 ppm [1] | pest or weed control at 100 ppm [8] | pest or weed control at 1 ppm [2] | pest or weed control at 1 ppm [3] | pest or weed control at 1 ppm [4] | pest or weed control at 100 ppm [5] | pest or weed control at 1 ppm [6]

N#Cc1cccc(C(=O)Nc2cccc(C(=O)Nc3c(I)cc(C(F)(C(F)(F)F)C(F)(F)F)cc3C(F)(F)F)c2F)c1 [6-1750]
≥ 70%: pest or weed control at 100 ppm [7] | pest or weed control at 1 ppm [1] | pest or weed control at 100 ppm [8] | pest or weed control at 1 ppm [2] | pest or weed control at 1 ppm [3] | pest or weed control at 1 ppm [4] | pest or weed control at 100 ppm [5] | pest or weed control at 1 ppm [6]

O=C(Nc1cccc(C(=O)Nc2c(I)cc(C(F)(C(F)(F)F)C(F)(F)C(F)(F)F)cc2C(F)(F)F)c1F)c1ccc(F)cc1 (centres unmarked) [6-1811]
≥ 70%: pest or weed control at 100 ppm [7] | pest or weed control at 1 ppm [1] | pest or weed control at 100 ppm [8] | pest or weed control at 1 ppm [2] | pest or weed control at 1 ppm [3] | pest or weed control at 1 ppm [4] | pest or weed control at 100 ppm [5] | pest or weed control at 1 ppm [6]

CN(C(=O)c1cccnc1Cl)c1cccc(C(=O)Nc2c(Br)cc(C(F)(C(F)(F)F)C(F)(F)C(F)(F)F)cc2C(F)(F)F)c1 (centres unmarked) [7-382]
≥ 70%: pest or weed control at 100 ppm [7] | pest or weed control at 1 ppm [1] | pest or weed control at 100 ppm [8] | pest or weed control at 1 ppm [2] | pest or weed control at 1 ppm [3] | pest or weed control at 1 ppm [4] | pest or weed control at 100 ppm [5] | pest or weed control at 1 ppm [6]

CN(C(=O)c1cccc(C#N)c1)c1cccc(C(=O)Nc2c(I)cc(C(F)(C(F)(F)F)C(F)(F)F)cc2C(F)(F)F)c1 [7-444]
≥ 70%: pest or weed control at 100 ppm [7] | pest or weed control at 10 ppm [1] | pest or weed control at 100 ppm [8] | pest or weed control at 1 ppm [2] | pest or weed control at 1 ppm [3] | pest or weed control at 1 ppm [4] | pest or weed control at 100 ppm [5] | pest or weed control at 1 ppm [6]

CN(C(=O)c1ccccc1)c1cccc(C(=O)Nc2c(I)cc(C(F)(C(F)(F)F)C(F)(F)C(F)(F)F)cc2C(F)(F)F)c1 (centres unmarked) [7-502]
≥ 70%: pest or weed control at 1 ppm [1] | pest or weed control at 1 ppm [2] | pest or weed control at 1 ppm [3] | pest or weed control at 1 ppm [4] | pest or weed control at 100 ppm [5] | pest or weed control at 1 ppm [6]

CN(C(=O)c1ccc(F)cc1)c1cccc(C(=O)Nc2c(I)cc(C(F)(C(F)(F)F)C(F)(F)C(F)(F)F)cc2C(F)(F)F)c1 (centres unmarked) [7-505]
≥ 70%: pest or weed control at 1 ppm [1] | pest or weed control at 1 ppm [2] | pest or weed control at 1 ppm [3] | pest or weed control at 1 ppm [4] | pest or weed control at 100 ppm [5] | pest or weed control at 1 ppm [6]

CN(C(=O)c1ccc(F)cc1)c1cccc(C(=O)Nc2c(Br)cc(C(F)(C(F)(F)F)C(F)(F)F)cc2Br)c1F [7-1107]
≥ 70%: pest or weed control at 100 ppm [7] | pest or weed control at 100 ppm [8] | pest or weed control at 1 ppm [2] | pest or weed control at 1 ppm [3] | pest or weed control at 1 ppm [4] | pest or weed control at 100 ppm [5] | pest or weed control at 1 ppm [6]

CN(C(=O)c1cccc(C#N)c1)c1cccc(C(=O)Nc2c(Br)cc(C(F)(C(F)(F)F)C(F)(F)F)cc2C(F)(F)F)c1F [7-1594]
≥ 70%: pest or weed control at 100 ppm [7] | pest or weed control at 1 ppm [1] | pest or weed control at 1 ppm [2] | pest or weed control at 1 ppm [3] | pest or weed control at 1 ppm [4] | pest or weed control at 100 ppm [5] | pest or weed control at 1 ppm [6]
